Data published in paper PMC7570662, “In Vivo Pharmacokinetic Analysis Utilizing Non-Targeted and Targeted Mass Spectrometry and In Vitro Assay against Transient Receptor Potential Channels of Maobushisaishinto and Its Constituent Asiasari Radix” (Molecules, 2020).

Experiments:
human TRPV4 = target: T1, human TRPV4 (Homo sapiens, UniProt Q9HBA0); assay: Ca2+ influx assay in TRPV4-expressing T-REx-293 cells; format: cell-based; conditions: 10 µmol/L test compound, relative to 4 µmol/L GSK1016790A; for activation at 10 µM: T-REx-293, read-out: % of Activation Compared to Positive Control against Each Subfamily of TRP Channel TRPV4
T1 construct: Each full-length human TRPA1, TRPV1, TRPV4, and TRPM8 coding regions were introduced into a pcDNA4/TO vector; expressed in transfected cells; host or cells: T-REx-293 cells (tetracycline-induced, pcDNA4/TO vector)
Description: (§1) Each full-length human TRPA1, TRPV1, TRPV4, and TRPM8 coding regions were introduced into a pcDNA4/TO vector (Thermo Fisher Scientific, Waltham, MA, USA) and transfected into T-REx-293 cells (Thermo Fisher Scientific) to obtain stable cell lines expressing human TRPA1, TRPV1, TRPV4, and TRPM8. Cells were cultured in DMEM with 10% FBS, 4 mmol/L L-glutamine, and penicillin/streptomycin.
(§2) Cells were suspended in medium with 1 µg/mL tetracycline and seeded in poly-D-lysine coated 96-well plate at 2.5 × 10^4 cells/well. After overnight culture, the cells were used for Ca^2+ influx assay.
(§3) The Ca^2+ influx assay was performed using a FLIPR Calcium 5 Assay Kit (Molecular Devices, Sunnyvale, CA, USA) according to previously reported methods with minor modifications. In brief, cells were incubated with 80 µL Ca^2+-chelating dye dissolved in assay buffer at pH 7.4 (Hanks’ Balanced Salt Solution containing 20 mmol/L of N-2-hydroxyethylpiperazine-N’-2-ethanesulfonic acid) at room temperature for 30 min. The plates were assayed using a FlexStation 3 Microplate Reader (Molecular Devices). The fluorescence intensity was traced entirely for 80 s. The baseline of fluorescence was measured for 20 s before adding 20 µL of test compound (final concentration, 10 µmol/L). The response was expressed as percentage activation using the relative fluorescence units (RFU) (% activation = 100 × ((RFUmax − RFUbaseline)/RFUbaseline) − 100). Furthermore, the activities of each test compound against several subfamilies of TRP channels were represented as the relative enhancement of Ca^2+ influx of each positive control, indicated as follows: 20 µmol/L of allyl isothiocyanate (an agonist of TRPA1), 2 µmol/L of capsaicin (an agonist of TRPV1), 4 µmol/L of GSK1016790A (an agonist of TRPV4), and 20 µmol/L of icilin (an agonist of TRPM8). The dose–response curve was fitted to the sigmoidal dose-response equation (top, the max response of each compound), and EC50 values were calculated using GraphPad Prism 7 software (GraphPad, San Diego, CA, USA).

[1] = Qualitative non-targeted LC-HRMS analysis of AR compounds in rat plasma after oral AR or MBST; format: in vivo; conditions: for Detection in plasma of rats treated with AR or MBST (non-targeted analysis): po
Description: Extract powders of AR or MBST were suspended in distilled water and orally administered to rats having fasted for approximately 16 h. The dose of AR was set at 2 g/kg, and the MBST doses were set at 1 and 2 g/kg. 1 g/kg MBST contained 578 µg/kg, 147 µg/kg, 226 µg/kg, 426 µg/kg asarinin, sesamin, methyl kakuol, and amide A, respectively. The doses were chosen based on a previous pharmacological study of MBST using rats.
According to previous pharmacokinetic studies of herbal medicines, many of the components were quickly absorbed into the bloodstream, thereby providing the rationale for a sampling time at 1 h. Blood was centrifuged at 1200× g at 4 °C for 30 min to obtain plasma; then, the sample was stored at −80 °C until LC-HRMS analysis. […]
The plasma samples were collected at 1 h after MBST administration in case of both the qualitative (non-targeted) analysis and the quantitative (targeted) analysis.
The plasma samples of AR- or MBST-treated rats collected at 1 h post-administration were pretreated by deproteinization using methanol before the LC-HRMS analysis as follows: 100 µL plasma sample was mixed with 500 µL methanol, and the resultant solution was vortexed for 2 min. The mixture was centrifuged at 7000× g at 4 °C for 5 min. The supernatant was dried using a centrifugal evaporator, and the dried residue was dissolved in 100 μL of the initial LC mobile phase which is composed of 0.1 vol% formic acid in water/acetonitrile (99.9/0.1, v/v) and recentrifuged at 7000× g at 4 °C for 5 min. Finally, a 5 μL aliquot of the supernatant was injected into the LC-HRMS system comprised of an Acquity Ultra-Performance Liquid Chromatography System (Waters, Milford, MA, USA) and a Xevo G2-XS quadrupole time-of-flight MS (Waters) and was chromatographically separated using an ACQUITY UPLC HSS T3 column (2.1 × 150 mm I.D., 1.8-μm particle size; Waters) with an ACQUITY UPLC HSS T3 VanGuard Pre-column (2.1 mm × 5 mm I.D., 1.8-μm particle size; Waters) at 40 °C. The mobile phase consisted of solution A (0.1% formic acid, v/v) and solution B (acetonitrile) with a gradient of solution B (0.1%, 0 min; 99%, 24 min; v/v) at a flow rate of 0.4 mL/min. The analysis of the mass spectrometer fit with an electrospray ionization probe with sensitivity mode was performed for both the positive and negative ion mode. The resolution of the mass spectrometer was set at >20,000. For MS^E experiments, two acquisition functions with different collision energies were created: a low-energy function with a collision energy of 6 eV and a high-energy function with collision energy ranging from 15 to 40 eV.

human TRPV1 = target: T2, human TRPV1 (Homo sapiens, UniProt Q8NER1); assay: Ca2+ influx assay in TRPV1-expressing T-REx-293 cells; format: cell-based; conditions: 10 µmol/L test compound, relative to 2 µmol/L capsaicin; for activation at 10 µM: T-REx-293, read-out: % of Activation Compared to Positive Control against Each Subfamily of TRP Channel TRPV1
T2 construct: Each full-length human TRPA1, TRPV1, TRPV4, and TRPM8 coding regions were introduced into a pcDNA4/TO vector; expressed in transfected cells; host or cells: T-REx-293 cells (tetracycline-induced, pcDNA4/TO vector)
Description: as §1, §2, §3

human TRPM8 = target: T3, human TRPM8 (Homo sapiens, UniProt Q7Z2W7); assay: Ca2+ influx assay in TRPM8-expressing T-REx-293 cells; format: cell-based; conditions: 10 µmol/L test compound, relative to 20 µmol/L icilin; for activation at 10 µM: T-REx-293, read-out: % of Activation Compared to Positive Control against Each Subfamily of TRP Channel TRPM8
T3 construct: Each full-length human TRPA1, TRPV1, TRPV4, and TRPM8 coding regions were introduced into a pcDNA4/TO vector; expressed in transfected cells; host or cells: T-REx-293 cells (tetracycline-induced, pcDNA4/TO vector)
Description: as §1, §2, §3

T1 sequence (Q9HBA0 whole entry): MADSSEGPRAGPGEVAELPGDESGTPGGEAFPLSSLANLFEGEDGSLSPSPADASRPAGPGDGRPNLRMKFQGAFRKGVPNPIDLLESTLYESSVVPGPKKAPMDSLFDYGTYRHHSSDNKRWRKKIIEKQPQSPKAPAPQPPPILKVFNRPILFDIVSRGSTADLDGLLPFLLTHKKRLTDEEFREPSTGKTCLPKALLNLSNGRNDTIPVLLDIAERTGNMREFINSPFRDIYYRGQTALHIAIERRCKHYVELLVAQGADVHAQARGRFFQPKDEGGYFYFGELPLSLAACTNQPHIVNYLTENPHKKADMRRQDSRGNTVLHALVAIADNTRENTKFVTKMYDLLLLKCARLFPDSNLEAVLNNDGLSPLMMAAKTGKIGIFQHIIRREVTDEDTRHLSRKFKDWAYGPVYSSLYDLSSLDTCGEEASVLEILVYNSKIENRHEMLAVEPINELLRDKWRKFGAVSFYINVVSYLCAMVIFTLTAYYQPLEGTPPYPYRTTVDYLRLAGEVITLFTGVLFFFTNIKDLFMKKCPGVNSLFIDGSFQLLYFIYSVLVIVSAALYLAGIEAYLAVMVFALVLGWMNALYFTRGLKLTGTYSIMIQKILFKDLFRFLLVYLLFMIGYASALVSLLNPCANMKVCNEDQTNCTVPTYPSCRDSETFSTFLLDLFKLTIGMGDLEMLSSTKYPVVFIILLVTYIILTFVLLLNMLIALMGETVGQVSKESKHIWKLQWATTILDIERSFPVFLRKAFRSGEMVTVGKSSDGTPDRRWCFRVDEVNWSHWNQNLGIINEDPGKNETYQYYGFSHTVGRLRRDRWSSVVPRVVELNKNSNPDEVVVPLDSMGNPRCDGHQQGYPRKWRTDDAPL
T3 sequence (Q7Z2W7 whole entry): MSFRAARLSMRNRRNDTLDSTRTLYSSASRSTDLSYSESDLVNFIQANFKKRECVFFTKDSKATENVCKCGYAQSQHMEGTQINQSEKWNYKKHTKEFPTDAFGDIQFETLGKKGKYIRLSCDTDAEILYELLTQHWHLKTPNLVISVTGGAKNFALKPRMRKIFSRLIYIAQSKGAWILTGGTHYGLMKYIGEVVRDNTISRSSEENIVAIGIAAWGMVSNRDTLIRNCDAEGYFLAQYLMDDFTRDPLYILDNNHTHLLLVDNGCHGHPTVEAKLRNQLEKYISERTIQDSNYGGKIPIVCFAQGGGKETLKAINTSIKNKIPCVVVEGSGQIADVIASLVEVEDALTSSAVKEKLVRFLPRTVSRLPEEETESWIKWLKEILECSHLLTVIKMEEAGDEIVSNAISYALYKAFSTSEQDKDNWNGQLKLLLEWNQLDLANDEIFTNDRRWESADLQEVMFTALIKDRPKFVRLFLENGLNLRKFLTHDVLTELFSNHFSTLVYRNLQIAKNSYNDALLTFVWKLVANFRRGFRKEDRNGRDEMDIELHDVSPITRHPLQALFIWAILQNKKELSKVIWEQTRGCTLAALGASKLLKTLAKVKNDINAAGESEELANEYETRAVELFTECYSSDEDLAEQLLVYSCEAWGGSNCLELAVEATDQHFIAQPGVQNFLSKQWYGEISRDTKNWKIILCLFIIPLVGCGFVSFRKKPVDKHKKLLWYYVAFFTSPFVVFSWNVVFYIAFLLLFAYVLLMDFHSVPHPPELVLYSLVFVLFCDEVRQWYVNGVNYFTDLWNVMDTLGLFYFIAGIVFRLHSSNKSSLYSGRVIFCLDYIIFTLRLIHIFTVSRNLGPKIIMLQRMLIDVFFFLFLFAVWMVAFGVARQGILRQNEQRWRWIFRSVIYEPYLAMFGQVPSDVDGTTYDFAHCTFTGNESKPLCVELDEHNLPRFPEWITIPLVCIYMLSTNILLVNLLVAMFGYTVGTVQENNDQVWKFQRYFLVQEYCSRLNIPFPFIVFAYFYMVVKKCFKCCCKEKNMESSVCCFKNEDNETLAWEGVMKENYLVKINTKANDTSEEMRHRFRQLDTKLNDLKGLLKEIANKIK
T2 sequence (Q8NER1 whole entry): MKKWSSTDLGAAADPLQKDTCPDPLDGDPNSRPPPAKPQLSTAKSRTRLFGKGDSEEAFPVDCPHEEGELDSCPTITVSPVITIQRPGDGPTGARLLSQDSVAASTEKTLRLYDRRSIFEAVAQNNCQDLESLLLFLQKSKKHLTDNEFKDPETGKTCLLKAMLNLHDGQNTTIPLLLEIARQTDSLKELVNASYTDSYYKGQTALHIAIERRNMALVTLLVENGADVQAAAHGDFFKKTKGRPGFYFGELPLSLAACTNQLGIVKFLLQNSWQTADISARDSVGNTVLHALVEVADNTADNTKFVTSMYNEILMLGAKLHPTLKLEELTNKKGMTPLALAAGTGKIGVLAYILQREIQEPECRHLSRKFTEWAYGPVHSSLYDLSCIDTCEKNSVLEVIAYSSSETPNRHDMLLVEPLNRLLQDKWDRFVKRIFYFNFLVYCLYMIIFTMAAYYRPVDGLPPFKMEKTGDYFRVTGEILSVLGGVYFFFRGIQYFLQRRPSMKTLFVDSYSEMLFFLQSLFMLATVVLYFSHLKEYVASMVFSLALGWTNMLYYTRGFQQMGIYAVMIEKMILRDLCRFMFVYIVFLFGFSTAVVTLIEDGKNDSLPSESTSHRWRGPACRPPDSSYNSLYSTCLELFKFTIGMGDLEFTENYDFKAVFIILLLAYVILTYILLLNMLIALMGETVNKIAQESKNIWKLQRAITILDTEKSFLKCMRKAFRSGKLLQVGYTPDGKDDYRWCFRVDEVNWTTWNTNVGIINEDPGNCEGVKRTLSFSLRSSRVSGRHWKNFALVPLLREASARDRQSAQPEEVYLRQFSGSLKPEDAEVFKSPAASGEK

C/C=C/C=C\CC/C=C/C=C/C(=O)NCC(C)C [Amide A, (2E,4E,8Z,10E)-N-isobutyl-2,4,8,10-dodecatetraenamide]
activation at 10 µM (human TRPV4): 2.7% | Metabolites found in AR- or MBST-treated plasma ([1]; rat, in vivo): metabolized into an alkylated and a water adducted + alkylated form | activation at 10 µM (human TRPV1): 0.7% | activation at 10 µM (human TRPM8): 6.1%

c1cc2c(cc1[C@H]1OC[C@H]3[C@@H]1CO[C@@H]3c1ccc3c(c1)OCO3)OCO2 [Sesamin]
activation at 10 µM (human TRPV4): -0.1% | Detection in plasma of rats treated with AR or MBST (non-targeted analysis) ([1]; rat, in vivo): not detected | activation at 10 µM (human TRPV1): -0.1% | activation at 10 µM (human TRPM8): -0.8%

c1cc2c(cc1[C@H]1OC[C@H]3[C@@H]1CO[C@H]3c1ccc3c(c1)OCO3)OCO2 [Asarinin, (−)-Asarinin]
activation at 10 µM (human TRPV4): -0.1% | Detection in plasma of rats treated with AR or MBST (non-targeted analysis) ([1]; rat, in vivo): not detected | activation at 10 µM (human TRPV1): -0.4% | activation at 10 µM (human TRPM8): 1.4%

CCC(=O)c1cc2c(cc1OC)OCO2 [Methyl kakuol]
% of Activation Compared to Positive Control against Each Subfamily of TRP Channel TRPV4 (human TRPV4): 0.9% | AR-Treated Rat Plasma (detection of compound) ([1]; rat plasma 1 h after oral 2 g/kg AR, n = 1, LC-HRMS): + (The number of plus signs represents the sample number in which the compound was detected among AR-treated rat plasma (n = 1) and MBST-treated rat plasma (n = 3)) | MBST-Treated Rat Plasma (detection of compound) ([1]; rat plasma 1 h after oral 2 g/kg MBST, n = 3, LC-HRMS): + + + (The number of plus signs represents the sample number in which the compound was detected among AR-treated rat plasma (n = 1) and MBST-treated rat plasma (n = 3)) | Metabolites found in AR- or MBST-treated plasma ([1]; rat plasma, non-targeted LC-HRMS, phase I and II metabolite exploration): metabolized into a sulfate conjugate and a dehydrogenated + sulfate conjugate form | % of Activation Compared to Positive Control against Each Subfamily of TRP Channel TRPV1 (human TRPV1): 0.1% | % of Activation Compared to Positive Control against Each Subfamily of TRP Channel TRPM8 (human TRPM8): 2.8%
